Measured values taken from patent US9040518B2, “Chemical compounds” (GlaxoSmithKline LLC, priority 2010, dated 2015).
Structures can show the parent of a compound that is named as a salt.

Target: ileal bile acid cotransporter (iBAT) (Homo sapiens (Human), UniProt Q12908)
Test: Human iBAT inhibition: [3H]-taurocholate uptake into HEK293 cells expressing human iBAT
Format: cell-based
Settings: HEK293 cells transduced with human iBAT Bacmam virus, 90 minutes at ambient temperature, mean of at least 2 datapoints
Procedure: Method for Determination of Human iBAT Inhibition:
In preparation for measurement of bile acid uptake into cells expressing the ileal bile acid cotransporter (iBAT), HEK293 cells were cultured in DMEM/F12 supplemented with 10% FBS. Twenty four hours prior to running an experiment, cells were harvested when at a confluence of 80-90%. Cells were seeded in poly-d-lysine coated plates at 50,000 cells per well, and human iBAT Bacmam virus was added such that each well contains 3.67×10e6 pfu (73.4pfu/cell). Each assay plate was covered with Breathe Easy Seal and placed in an incubator for 24 hours to allow expression of the transporter.
On the day of the uptake experiment, 10 mM HEPES was added to Hank's Balanced Salt Solution, and the pH was adjusted to 7.4 with TRIS (HBSSH). The assay buffer was prepared by adding […] [^3H]-taurocholate and 10 μM cold taurocholate to room temperature HBSSH. A separate washing buffer was prepared by adding 10 μM cold taurocholate to HBSSH (˜30 ml per assay plate) and placed on ice. Using 100% DMSO, 8 point, 3-fold dilution curves for each test compound was prepared starting at 200 μM. Similarly, an 8 point dose response curve was prepared of the control compound [(3R,5R)-3-butyl-3-ethyl-7,8-bis(methyloxy)-5-phenyl-2,3,4,5-tetrahydro-1,4-benzothiazepine 1,1-dioxide (Brieaddy, L. E. WO9605188, 1996)] starting at 1.8 mM. Drug plates were created by adding 3 μL of each concentration to a v-bottom 96-well plate then diluted 60-fold with 177 μL of assay buffer. Plates were removed from the incubator and allowed to cool to ambient temperature. Media was aspirated, and wells were washed once with 300 μL HBSSH. 50 μL of each dose response curve concentration was added in triplicate by column to the assay plates, reserving column 10 for control (assay buffer+1.67% DMSO) and columns 11 and 12 for the control compound. Plates were incubated at ambient temperature for 90 minutes then the plates were aspirated then washed 1× with 300 μL of wash buffer. 220 μL of Microscint 20 was added to each well, and the plates were sealed. The amount of [^3H]-taurocholate in cell lysate was quantitated using a microplate scintillation counter on the following day.
IC50's can be generated using the formula, y=(Vmax*x^n)/(K^n+x^n).

Sequence of ileal bile acid cotransporter (iBAT) (Q12908 whole entry): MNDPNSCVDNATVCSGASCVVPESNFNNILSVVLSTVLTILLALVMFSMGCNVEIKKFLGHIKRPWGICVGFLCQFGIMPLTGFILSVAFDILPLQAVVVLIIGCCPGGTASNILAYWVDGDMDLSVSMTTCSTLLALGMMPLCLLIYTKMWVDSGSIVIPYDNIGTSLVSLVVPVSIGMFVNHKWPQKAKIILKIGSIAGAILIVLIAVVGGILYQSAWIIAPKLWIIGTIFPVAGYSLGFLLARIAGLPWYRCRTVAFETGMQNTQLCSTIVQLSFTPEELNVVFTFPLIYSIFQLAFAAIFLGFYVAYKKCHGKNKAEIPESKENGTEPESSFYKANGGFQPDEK

Row | IC50 | Compound
1 | 365 nM | CCCC[C@]1(CC)CS(=O)(=O)c2cc(CN(CCS(=O)(=O)O)CCS(=O)(=O)O)c(OC)cc2[C@@H](c2ccccc2)N1 [Example 36, 2,2′-({[(3R,5R)-3-butyl-3-ethyl-7-(methyloxy)-1,1-dioxido-5-phenyl-2,3,4,5-tetrahydro-1,4-benzothiazepin-8-yl]methyl}imino)diethanesulfonic acid trifluoroacetate salt]
2 | 11 nM | CCCC[C@]1(CC)CS(=O)(=O)c2cc(C(=O)NCS(=O)(=O)O)c(OC)cc2[C@@H](c2ccccc2)N1 [Example 2, ({[(3R,5R)-3-butyl-3-ethyl-7-(methyloxy)-1,1-dioxido-5-phenyl-2,3,4,5-tetrahydro-1,4-benzothiazepin-8-yl]carbonyl}amino)methanesulfonic acid]
3 | 190 nM | CCCC[C@]1(CC)CS(=O)(=O)c2cc(CNC(C)(C)C(=O)O)c(OC)cc2[C@@H](c2ccccc2)N1 [Example 32, N-{[(3R,5R)-3-butyl-3-ethyl-7-(methyloxy)-1,1-dioxido-5-phenyl-2,3,4,5-tetrahydro-1,4-benzothiazepin-8-yl]methyl}-2-methylalanine trifluoroacetate salt]
4 | 504 nM | CCCC[C@]1(CC)CS(=O)(=O)c2cc(CCC(=O)NCCS(=O)(=O)O)c(OC)cc2[C@@H](c2ccccc2)N1 [Example 15, 2-({3-[(3R,5R)-3-butyl-3-ethyl-7-(methyloxy)-1,1-dioxido-5-phenyl-2,3,4,5-tetrahydro-1,4-benzothiazepin-8-yl]propanoyl}amino)ethanesulfonic acid]
5 | 68 nM | CCCC[C@]1(CC)CS(=O)(=O)c2cc(CCC(=O)NO)c(OC)cc2[C@@H](c2ccccc2)N1 [Example 12, 3-[(3R,5R)-3-butyl-3-ethyl-7-(methyloxy)-1,1-dioxido-5-phenyl-2,3,4,5-tetrahydro-1,4-benzothiazepin-8-yl]-N-hydroxypropanamide]
6 | 731 nM | CCCC[C@]1(CC)CS(=O)(=O)c2cc(CCC(=O)NC(C)(C)C(=O)O)c(OC)cc2[C@@H](c2ccccc2)N1 [Example 16, N-{3-[(3R,5R)-3-butyl-3-ethyl-7-(methyloxy)-1,1-dioxido-5-phenyl-2,3,4,5-tetrahydro-1,4-benzothiazepin-8-yl]propanoyl}-2-methylalanine]
7 | 2700 nM | CCCC[C@]1(CC)CS(=O)(=O)c2cc(CNCCP(=O)(O)O)c(OC)cc2[C@@H](c2ccccc2)N1 [Example 33, [2-({[(3R,5R)-3-butyl-3-ethyl-7-(methyloxy)-1,1-dioxido-5-phenyl-2,3,4,5-tetrahydro-1,4-benzothiazepin-8-yl]methyl}amino)ethyl]phosphonic acid trifluoroacetate salt]
8 | 276 nM | CCCC[C@]1(CC)CS(=O)(=O)c2cc(CCC(=O)NCC(=O)O)c(OC)cc2[C@@H](c2ccccc2)N1 [Example 14, N-{3-[(3R,5R)-3-butyl-3-ethyl-7-(methyloxy)-1,1-dioxido-5-phenyl-2,3,4,5-tetrahydro-1,4-benzothiazepin-8-yl]propanoyl}glycine]
9 | 17 nM | CCCC[C@]1(CC)CS(=O)(=O)c2cc(CCC(=O)O)c(OC)cc2[C@@H](c2ccccc2)N1 [Example 10, 3-[(3R,5R)-3-butyl-3-ethyl-7-(methyloxy)-1,1-dioxido-5-phenyl-2,3,4,5-tetrahydro-1,4-benzothiazepin-8-yl]propanoic acid]

Further lines, the compound ahead of its results:

Row | Compound | IC50
10 | CCCC[C@]1(CC)CS(=O)(=O)c2cc(CNC(CC(=O)O)CC(=O)O)c(OC)cc2[C@@H](c2ccccc2)N1O [Example 50, 3-({[(3R,5R)-3-butyl-3-ethyl-4-hydroxy-7-(methyloxy)-1,1-dioxido-5-phenyl-2,3,4,5-tetrahydro-1,4-benzothiazepin-8-yl]methyl}amino)pentanedioic acid trifluoroacetate salt] | 51 nM
11 | CCCC[C@]1(CC)CS(=O)(=O)c2cc(CNC(=O)C(=O)O)c(OC)cc2[C@@H](c2ccccc2)N1 [Example 64, ({[(3R,5R)-3-butyl-3-ethyl-7-(methyloxy)-1,1-dioxido-5-phenyl-2,3,4,5-tetrahydro-1,4-benzothiazepin-8-yl]methyl}amino)(oxo)acetic acid] | 6 nM
12 | CCCC[C@]1(CC)CS(=O)(=O)c2cc(CNC(=O)CNCCP(=O)(O)O)c(OC)cc2[C@@H](c2ccccc2)N1 [Example 40, (2-{[2-({[(3R,5R)-3-butyl-3-ethyl-7-(methyloxy)-1,1-dioxido-5-phenyl-2,3,4,5-tetrahydro-1,4-benzothiazepin-8-yl]methyl}amino)-2-oxoethyl]amino}ethyl)phosphonic acid trifluoroacetate salt] | 4670 nM
13 | CCCC[C@]1(CC)CS(=O)(=O)c2cc(C(N)=O)c(OC)cc2[C@@H](c2ccccc2)N1 [Example 8, (3R,5R)-3-butyl-3-ethyl-7-(methyloxy)-5-phenyl-2,3,4,5-tetrahydro-1,4-benzothiazepine-8-carboxamide-1,1-dioxide] | 73 nM
14 | CCCC[C@]1(CC)CS(=O)(=O)c2cc(CN3CCC[C@@H]3C(=O)O)c(OC)cc2[C@@H](c2ccccc2)N1 [Example 57, 1-{[(3R,5R)-3-butyl-3-ethyl-7-(methyloxy)-1,1-dioxido-5-phenyl-2,3,4,5-tetrahydro-1,4-benzothiazepin-8-yl]methyl}-D-proline ammonium salt] | 751 nM
15 | CCCC[C@]1(CC)CS(=O)(=O)c2cc(CNCC(=O)O)c(N(C)C)cc2[C@@H](c2ccccc2)N1 [Example 68, N-{[(3R,5R)-3-butyl-7-(dimethylamino)-3-ethyl-1,1-dioxido-5-phenyl-2,3,4,5-tetrahydro-1,4-benzothiazepin-8-yl]methyl}glycine trifluoroacetate salt] | 1 nM
16 | CCCC[C@]1(CC)CS(=O)(=O)c2cc(CN(CP(=O)(O)O)CP(=O)(O)OCC)c(OC)cc2[C@@H](c2ccccc2)N1 [Example 61, [({[(3R,5R)-3-butyl-3-ethyl-7-(methyloxy)-1,1-dioxido-5-phenyl-2,3,4,5-tetrahydro-1,4-benzothiazepin-8-yl]methyl}{[(ethyloxy)(hydroxy)phosphoryl]methyl}amino)methyl]phosphonic acid triammonium salt] | 3360 nM
17 | CCCC[C@]1(CC)CS(=O)(=O)c2cc(C(=O)N(CC(=O)O)CC(=O)O)c(OC)cc2[C@@H](c2ccccc2)N1 [Example 4, 2,2′-({[(3R,5R)-3-butyl-3-ethyl-7-(methyloxy)-1,1-dioxido-5-phenyl-2,3,4,5-tetrahydro-1,4-benzothiazepin-8-yl]carbonyl}imino)diacetic acid hydrochloride] | 2540 nM
18 | CCCC[C@]1(CC)CS(=O)(=O)c2cc(CN[C@@H](CC(=O)O)C(=O)O)c(OC)cc2[C@@H](c2ccccc2)N1 [Example 27, N-{[(3R,5R)-3-butyl-3-ethyl-7-(methyloxy)-1,1-dioxido-5-phenyl-2,3,4,5-tetrahydro-1,4-benzothiazepin-8-yl]methyl}-L-aspartic acid trifluoroacetate salt] | 47 nM
19 | CCCC[C@]1(CC)CS(=O)(=O)c2cc(CP(=O)(O)O)c(OC)cc2[C@@H](c2ccccc2)N1O [Example 54, {[(3R,5R)-3-butyl-3-ethyl-4-hydroxy-7-(methyloxy)-1,1-dioxido-5-phenyl-2,3,4,5-tetrahydro-1,4-benzothiazepin-8-yl]methyl}phosphonic acid] | 124 nM
20 | CCCC[C@]1(CC)CS(=O)(=O)c2cc(/C=C/P(=O)(O)O)c(OC)cc2[C@@H](c2ccccc2)N1 [Example 55, {(E)-2-[(3R,5R)-3-butyl-3-ethyl-7-(methyloxy)-1,1-dioxido-5-phenyl-2,3,4,5-tetrahydro-1,4-benzothiazepin-8-yl]ethenyl}phosphonic acid bis-ammonium salt] | 131 nM
21 | CCCCC1(CCCC)CS(=O)(=O)c2cc(CNC(CC(=O)O)CC(=O)O)c(OC)cc2C(c2ccccc2)N1 (centres unmarked) [Example 65, 3-({[3,3-dibutyl-7-(methyloxy)-1,1-dioxido-5-phenyl-2,3,4,5-tetrahydro-1,4-benzothiazepin-8-yl]methyl}amino)pentanedioic acid trifluoroacetate salt] | 337 nM
22 | CCCC[C@]1(CC)CS(=O)(=O)c2cc(CNC(CC(=O)O)CC(=O)O)c(OC)cc2[C@@H](c2ccccc2)N1 [Example 26, 3-({[(3R,5R)-3-butyl-3-ethyl-7-(methyloxy)-1,1-dioxido-5-phenyl-2,3,4,5-tetrahydro-1,4-benzothiazepin-8-yl]methyl}amino)pentanedioic acid] | 43 nM
23 | CCCC[C@]1(CC)CS(=O)(=O)c2cc(CN3CCCC3=O)c(OC)cc2[C@@H](c2ccccc2)N1 [Example 31, 1-{[(3R,5R)-3-butyl-3-ethyl-7-(methyloxy)-1,1-dioxido-5-phenyl-2,3,4,5-tetrahydro-1,4-benzothiazepin-8-yl]methyl}-2-pyrrolidinone trifluoroacetate salt] | 407 nM
